The results in this text go back to PubChem BioAssay (NCI).

Assay in all cases: growth of human tumour cells (NCI), 48 h
The test system of assay [1] is OVCAR-4 ovarian.
The subject of assay [2] is A498 renal.
The subject of assay [3] is SK-OV-3 ovarian.
In assay [4] the test system is RXF 393 renal.
The subject of assay [5] is MDA-MB-231 breast.
Assay [6] deals with RPMI-8226 leukemia.
The test system of assay [7] is HCT-116 colon.
Assay [8] relates to KM12 colon.
For assay [9], the system named is UACC-257 melanoma.
The subject of assay [10] is BT-549 breast.
The subject of assay [11] is DU-145 prostate.
Assay [12] concerns SK-MEL-5 melanoma.
Assay [13] has as its system UO-31 renal.
The subject of assay [14] is OVCAR-8 ovarian.
In assay [15] the test system is PC-3 prostate.
Assay [16] concerns ACHN renal.
In assay [17] the test system is A549 NSCLC.
Assay [18] deals with HS 578T breast.
Assay [19] deals with M14 melanoma.
Assay [20] has as its system EKVX NSCLC.

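Test compounds were applied to cells in 96-well plates for 48 hours at 5 doses. Definition used: TGI = concentration required for complete inhibition of growth.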

`CCOC(=O)/C(C[C@H]1OC(C)(C)O[C@@H]1[C@H]1COC(C)(C)O1)=N/O`: the TGI in assay [1], in [2], in assay [3], in assay [4], in assay [5] and in assay [6] was greater than 100 µM in each case. For the same compound, the TGI in assay [7], in [8], in assay [9], in [10], in assay [11] and in assay [12] was greater than 100 µM throughout. The TGI in [13], in assay [14], in assay [15], in [16], in assay [17] and in assay [18] was greater than 100 µM each time. For the same compound, the TGI in [19] and in assay [20] was greater than 100 µM throughout.
`O[C@H]1[C@H]2[C@H](O)C[C@H](CCOCc3ccccc3)CN2C[C@H]1O`: the TGI in assay [1], in assay [2], in assay [3], in [4], in assay [5] and in assay [6] was greater than 100 µM each time. Moreover, the TGI in assay [7], in assay [8], in assay [9], in assay [10], in [11] and in [12] was greater than 100 µM throughout. The TGI in assay [13], in [14], in [15], in assay [16], in assay [17] and in assay [18] was greater than 100 µM each time. Besides, the TGI in [19] and in [20] was greater than 100 µM in each case.
On to `O=S(=O)(O)c1cc(N=Nc2cc(S(=O)(=O)O)c3cccnc3c2O)ccc1/C=C/c1ccc(N=Nc2cc(S(=O)(=O)O)c3cccnc3c2O)cc1S(=O)(=O)O`, for which the TGI in assay [1] is greater than 100 µM; in assay [2] it was greater than 100 µM; in assay [3] it was greater than 100 µM; in [4], greater than 31.6 µM; in assay [5] it was greater than 100 µM; in [6], greater than 100 µM. Further, the TGI in [7], in assay [8], in [9], in assay [10], in assay [11] and in assay [12] was greater than 100 µM in each case. Also, the TGI in assay [13], in [14], in assay [15], in assay [16], in assay [17] and in [18] was greater than 100 µM throughout. For the same compound, the TGI in assay [19] and in assay [20] was greater than 100 µM in each case.
For `O=C1CCCCC(=O)Nc2ccccc2N1`, the TGI in [1], in assay [2], in assay [3], in [4], in assay [5] and in assay [6] was greater than 100 µM each time. The TGI in assay [7], in [8], in assay [9], in [10], in assay [11] and in assay [12] was greater than 100 µM throughout. The TGI in [13], in [14], in [15], in [16], in assay [17] and in [18] was greater than 100 µM in each case. Also, the TGI in assay [19] and in assay [20] was greater than 100 µM in each case.
